Assay results taken from patent US20100173332A1, “Method for the Fluorescent Detection of Nitroreductase Activity Using Nitro-Substituted Aromatic Compounds” (Auckland Uniservices Limited, priority 2006, published 2010).
Values belong to the compound of their own block, whether it stands above or below them.

Tests used:
Format in all cases: cell-based
[1] = target: T1, E. coli nitroreductase (nfsB) (Escherichia coli, UniProt P38489); assay: Entrapment of fluorescent products within nitroreductase expressing HCT116 cells; conditions: washed; for cellular retention of fluorescence in nitroreductase expressing but not parental HCT116 cells: 10 μM for 1.5 hr, 6 hours post-exposure
T1 construct: expressed in transfected cells; host or cells: MDA231 (MDA-231) human breast cancer cell line, clonal derivative MDA231 NTR
Procedure: The human colorectal cancer cell line (HCT116^WT) and a clonal derivative (HCT116^NTR) engineered to express the reporter gene E. coli nitroreductase (nfsB) under the control of a constitutive promoter were seeded onto glass coverslips at an equal density (50:50). Cells were equilibrated to 37° C., 5% CO2, and compound 1 and 13 was added to a final concentration of 100 μM for 1 hr. Cells were washed free of compound after 1 hour and fluorescence was monitored as a function of time (FIG. 8).
In further screening (FIG. 9), the human colorectal cancer cell line (HCT116^WT) and a clonal derivative (HCT116^NTR) engineered to express the reporter gene E. coli nitroreductase (nfsB) under the control of a constitutive promoter were seeded separately into a 96-well glass plate. Cells were equilibrated to 37° C., 5% CO2, and compounds were added to a final concentration of 10 μM for 1.5 hr. Cells were washed free of compound and fluorescence was monitored 6 hours post-exposure. […] The image has been rendered monochromatic for the purposes of publication quality.

[2] = target: T2, Escherichia coli nfsB (NfsB) (Escherichia coli, UniProt P38489); assay: Multiplexed reporter detection with compounds 4 and 16 in MDA-231 cells expressing nfsB; conditions: nfsB and CYPOR cells mixed 1:1, 10 μM, 45 minutes, microscopy
T2 construct: expressed in transfected cells; host or cells: MDA231 (MDA-231) human breast cancer cell line, clonal derivative MDA231 NTR
Procedure: (§1) Compounds 4 and 16 (as representative nitro-substituted aromatic compounds of the present invention) were utilized to exemplify the ability to detect individual cell populations. […] 30,000 cells were seeded into a plastic 96-well plate in a volume of 0.1 mL. After 2 h attachment samples were incubated with either 200 μM 16 or 100 μM 4 by dilution of DMSO stock solutions into culture medium and addition of 0.1 mL directly into wells. Plates were incubated for 4 h before being read on a fluorescent platereader at Ex/Em 355/460 and 485/535. Values represent the fluorescence in the presence of cells—blank (fluorescence in the absence of cells). When the data were collated it was evident that the fluorescent output of each cell population could be identified with minimal interference from the other reductases-generated fluorescent molecules. […] To establish the single cell specificity of compounds 4 and 16 for detection of activities in a mixed (co-cultured) cell population, cells were examined by fluorescent microscopy following concurrent exposure to compounds 4 and 16. […] Samples were incubated at 37° C. for 45 minutes, washed three times in PBS and images were acquired on a Nikon TE-2000 inverted fluorescence microscope. […]

[3] = test system: Escherichia coli nfsB (NfsB) or human cytochrome P450 reductase (CYPOR); assay: Multiplexed reporter detection with compounds 11 and 13 in MDA-231 WT, NfsB and CYPOR cells (fluorescence microscopy); conditions: fluorescent microscope images, MDA-231 WT/NfsB/CYPOR
Source text: Compounds 11 and 13 (as representative nitro-substituted aromatic compounds of the present invention) were utilized to exemplify the ability to detect individual cell populations. […] When the data were collated it was evident that the fluorescent output of each cell population could be identified with minimal interference from the other reductases-generated fluorescent molecules. […] To establish the single cell specificity of compounds 11 and 13 for detection of activities in a mixed (co-cultured) cell population, cells were examined by fluorescent microscopy following concurrent exposure to compounds 11 and 13. MDA-231 wild-type cells or cells expressing Escherichia coli nfsB and human cytochrome P450 reductase were mixed 1:1:1, seeded onto glass coverslips (15,000 cells/well in 0.1 mL αMEM+10% FCS+P/S) and allowed to attach overnight. Compound 11 and 13 were diluted into αMEM (from DMSO stock solutions) and 0.1 mL was added to achieve a final concentration of 10 μM and 100 μM respectively. Samples were incubated at 37° C. for 45 minutes, washed three times in PBS and images were acquired on a Nikon TE-2000 inverted fluorescence microscope. […] This illustrates that multiple independent outputs can be recorded from a single sample providing appropriate excitation and emission wavelengths are utilized. […]

[4] = target: T3, human cytochrome P450 reductase (CYPOR) (Homo sapiens, UniProt P16435); assay: Multiplexed reporter detection with compounds 4 and 16 in MDA-231 cells expressing CYPOR
T3 construct: expressed in transfected cells; host or cells: MDA231 (MDA-231) human breast cancer cell line, clonal derivative MDA231 P450R
T3 sequence (P16435 1-677): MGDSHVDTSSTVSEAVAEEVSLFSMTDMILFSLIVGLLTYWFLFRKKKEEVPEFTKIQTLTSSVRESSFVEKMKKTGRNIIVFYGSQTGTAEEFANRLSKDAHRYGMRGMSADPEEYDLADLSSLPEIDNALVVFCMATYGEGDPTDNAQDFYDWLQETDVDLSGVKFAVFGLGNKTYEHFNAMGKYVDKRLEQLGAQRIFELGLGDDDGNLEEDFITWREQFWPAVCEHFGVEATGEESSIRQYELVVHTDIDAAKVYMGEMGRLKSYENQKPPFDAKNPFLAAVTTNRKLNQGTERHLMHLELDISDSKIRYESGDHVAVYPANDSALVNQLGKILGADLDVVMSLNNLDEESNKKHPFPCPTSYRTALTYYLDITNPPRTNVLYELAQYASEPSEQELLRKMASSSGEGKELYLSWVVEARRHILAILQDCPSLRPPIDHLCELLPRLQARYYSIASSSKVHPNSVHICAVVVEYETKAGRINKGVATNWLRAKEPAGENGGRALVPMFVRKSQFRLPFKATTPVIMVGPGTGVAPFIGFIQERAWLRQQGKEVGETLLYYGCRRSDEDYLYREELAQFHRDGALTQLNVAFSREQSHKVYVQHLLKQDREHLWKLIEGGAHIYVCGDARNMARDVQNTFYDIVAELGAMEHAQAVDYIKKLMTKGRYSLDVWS
Procedure: as §1

T1 sequence (P38489 whole entry): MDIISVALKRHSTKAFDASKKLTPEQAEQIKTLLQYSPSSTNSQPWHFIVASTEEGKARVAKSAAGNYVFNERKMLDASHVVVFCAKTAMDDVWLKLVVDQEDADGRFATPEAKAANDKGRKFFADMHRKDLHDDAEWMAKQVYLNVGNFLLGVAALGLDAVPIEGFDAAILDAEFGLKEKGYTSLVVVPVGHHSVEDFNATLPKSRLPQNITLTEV
T2 sequence (P38489 whole entry): as above

SMILES: CN(C)CCCOc1ccnc2cc([N+](=O)[O-])ccc12 [Compound 14, N,N-dimethyl-3-[(7-nitro-4-quinolinyl)oxy]-1-propanamine]
cellular retention of fluorescence in nitroreductase expressing but not parental HCT116 cells [1]: possessing cellular retention properties
fluorescent emission colour on co-registration image (FITC filter set) [2]: green

SMILES: COC(=O)Cn1ccc(=O)c2cc([N+](=O)[O-])ccc21 [Compound 13, Methyl (6-nitro-4-oxo-1(4H)-quinolinyl)acetate]
cellular retention of fluorescence in nitroreductase expressing but not parental HCT116 cells [1]: possessing cellular retention properties
retention of fluorescence in cells after wash ([1]; HCT116 WT:HCT116 NTR 50:50 co-culture, 100 μM for 1 hr, by 4 hours): still retained
fluorescent output at Ex/Em 355/460 detecting nfsB and CYPOR enzyme activities [3]: gave fluorescent output

fluorescent output at Ex/Em 355/460 detecting human CYPOR activity ([4]; 200 μM, 4 h, platereader, MDA-231 WT/NfsB/CYPOR): gave fluorescent output
fluorescent emission colour on co-registration image (DAPI filter set) ([4]; nfsB and CYPOR cells mixed 1:1, 300 μM, 45 minutes, microscopy): blue
SMILES: CN(C)CCCNc1ncnc2cccc([N+](=O)[O-])c12 [Compound 16, N^1,N^1-dimethyl-N^3-(5-nitro-4-quinazolinyl)-1,3-propanediamine]

SMILES: CN(C)CCCCN1C(=O)c2cccc3cc([N+](=O)[O-])cc(c23)C1=O [Compound 11, 2-[4-(Dimethylamino)butyl]-5-nitro-1H-benzo[de]isoquinoline-1,3(2H)-dione]
fluorescent output at Ex/Em 485/535 detecting nfsB and CYPOR enzyme activities [3]: gave fluorescent output
